Laboratory results from ChEMBL document CHEMBL1131509, “Synthesis and cytotoxicity of 2-acetyl-4,8-dihydrobenzodithiophene-4, 8-dione derivatives” (J Med Chem, 1998).

How the values were obtained:
UACC-257 = assay: in vitro inhibition of melanoma (UACC-257) cancer cell line; format: functional; conditions: Homo sapiens
LOX IMVI = assay: in vitro inhibition of melanoma(LOX IMVI) cancer cell line; format: functional; conditions: Homo sapiens
HL-60 = assay: in vitro inhibition of leukemia (HL-60(TB)) cancer cell line; format: functional; conditions: Homo sapiens
BT-549 [1] = assay: in vitro inhibition of breast (BT-549) cancer cell line; format: functional; conditions: Homo sapiens
UACC-62 = assay: in vitro inhibition of melanoma (UACC-62) cancer cell line; format: functional; conditions: Homo sapiens
M14 = assay: in vitro inhibition of melanoma (M14) cancer cell line; format: functional; conditions: Homo sapiens
MDA-MB-435 = assay: in vitro inhibition of breast (MDA-MB-435) cancer cell line; format: functional; conditions: Homo sapiens
NCI-H522 = assay: in vitro inhibition of non-small-cell lung (NCI-H522) cancer cell line; format: functional; conditions: Homo sapiens
Malme-3M = assay: in vitro inhibition of melanoma (MALME-3M) cancer cell line; format: functional; conditions: Homo sapiens
SK-MEL-5 = assay: in vitro inhibition of melanoma (SK-MEL-5) cancer cell line; format: functional; conditions: Homo sapiens
NCI-H23 = assay: in vitro inhibition of non-small-cell lung (NCI-H23) cancer cell line; format: functional; conditions: Homo sapiens
SK-MEL-2 [2] = assay: in vitro inhibition of melanoma (SK-MEL-2) cancer cell line; format: functional; conditions: Homo sapiens
OVCAR-3 = assay: in vitro inhibition of ovarian (OVCAR-3) cancer cell line; format: functional; conditions: Homo sapiens
OVCAR-8 = assay: in vitro inhibition of ovarian (OVCAR-8) cancer cell line; format: functional; conditions: Homo sapiens
Hs-578T = assay: in vitro inhibition of breast (HS 578T) cancer cell line; format: functional; conditions: Homo sapiens
SK-MEL-28 = assay: in vitro inhibition of melanoma (SK-MEL-28) cancer cell line; format: functional; conditions: Homo sapiens
MDA-N = assay: in vitro inhibition of breast (MDA-N) cancer cell line; format: functional; conditions: Homo sapiens
BT-549 [3] = assay: in vitro inhibition of breast (BT-549) cancer cell line; conditions: Homo sapiens
P388 = assay: cytotoxic activity against leukemia (P-388) cancer cell line; format: functional, cell-based; conditions: Mus musculus
A549 = assay: cytotoxic activity against […] cancer cell line; format: functional, cell-based; conditions: Homo sapiens
MCF7 = assay: cytotoxic activity against […] cancer cell line; format: functional, cell-based; conditions: Homo sapiens
L1210 (1565) = assay: cytotoxic activity against leukemia (L-1210) cancer cell line; format: functional, cell-based; conditions: Mus musculus
CAKI-1 = assay: cytotoxic activity against […] cancer cell line; format: functional, cell-based; conditions: Homo sapiens
KB = assay: cytotoxic activity against […] cancer cell line; format: functional, cell-based; conditions: Homo sapiens
HCT-8 = assay: cytotoxic activity against […] cancer cell line; format: functional, cell-based; conditions: Homo sapiens
SK-MEL-2 [4] = assay: cytotoxic activity against […] cancer cell line; format: functional, cell-based; conditions: Homo sapiens

Row | Structure (SMILES) | GI50 (UACC-257) [nM] | GI50 (LOX IMVI) [nM] | GI50 (HL-60) [nM] | GI50 (BT-549 [1]) [nM] | GI50 (UACC-62) [nM] | GI50 (M14) [nM] | GI50 (MDA-MB-435) [nM] | GI50 (NCI-H522) [nM] | GI50 (Malme-3M) [nM] | GI50 (SK-MEL-5) [nM] | GI50 (NCI-H23) [nM] | GI50 (SK-MEL-2 [2]) [nM] | GI50 (OVCAR-3) [nM] | GI50 (OVCAR-8) [nM] | GI50 (Hs-578T) [nM] | GI50 (SK-MEL-28) [nM] | GI50 (MDA-N) [nM] | also measured
1 | CC(=O)c1cc2c(s1)C(=O)c1scc(C(C)=O)c1C2=O | 170 | 22 | < 10 | 910 | 230 | 440 | 230 | 380 | 220 | 320 | 290 | 160 | 30 | 230 | 280 | 200 | 200 | 
2 | CC(=O)OC(C)c1cc2c(s1)C(=O)c1ccsc1C2=O (configuration not stated) | 25 | < 10 | < 10 |  | 17 | 13 | < 10 | 150 | < 10 | 14 | 11 | 26 | < 10 | 36 | 160 | 19 | < 10 | GI50 (BT-549 [3]): 46 nM
3 | CC(O)c1cc2c(s1)C(=O)c1scc(C(C)O)c1C2=O (configuration not stated) | 160 | 120 | 440 | 200 | 250 | 160 | 160 | 400 | 150 | 140 | 190 | 200 | 360 | 260 | 320 | 230 | 150 | 
4 | CC(O)c1cc2c(s1)C(=O)c1sccc1C2=O (configuration not stated) | 18 | 24 | 69 | 35 | 22 | 15 | 16 | 120 | 19 | 14 | 16 | 31 | 120 | 160 | 58 | 39 | 19 | 
5 | O=C1c2ccsc2C(=O)c2ccsc21 |  |  |  |  |  |  |  |  |  |  |  |  |  |  |  |  |  | IC50 (P388): < 530 nM; IC50 (A549): 260 nM; IC50 (MCF7): 480 nM; IC50 (L1210 (1565)): 1700 nM; IC50 (CAKI-1): 1500 nM; IC50 (KB): 310 nM; IC50 (HCT-8): 320 nM
6 | CC(=O)c1cc2c(s1)C(=O)c1c(C(C)=O)csc1C2=O | 560 | 1100 | 53 |  | 2000 | 1500 | 180 | 530 | 130 | 1200 | 1300 | 1700 | 230 | 1500 | 2400 | 1800 | 170 | GI50 (BT-549 [3]): 1700 nM
7 | O=C1c2ccsc2C(=O)c2sccc21 |  |  |  |  |  |  |  |  |  |  |  |  |  |  |  |  |  | IC50 (A549): 170 nM; IC50 (SK-MEL-2 [4]): 320 nM; IC50 (MCF7): < 85 nM; IC50 (CAKI-1): 590 nM; IC50 (KB): 270 nM; IC50 (HCT-8): 170 nM
8 | CC(=O)c1cc2c(s1)C(=O)c1ccsc1C2=O | 130 | 25 | 45 | 180 | 210 | 130 | 37 | 160 | 117 | 23 | 150 | 200 | 160 | 300 | 160 | 160 | 37 | 
9 | CC(=O)c1cc2c(s1)C(=O)c1sccc1C2=O | 14 | < 10 | < 10 | 18 | 17 | 17 | < 10 | 17 | 16 | < 10 | 18 | 33 | < 10 | 31 | 36 | < 10 | < 10 | 
10 | CC(=O)OC(C)c1cc2c(s1)C(=O)c1sccc1C2=O (configuration not stated) | 210 | 210 | 1700 | 280 | 1400 | 160 | 180 | 870 | 120 | 110 | 220 | 420 | 490 | 1400 | 510 | 650 | 19 | 
11 | CC(=O)OC(C)c1cc2c(s1)C(=O)c1c(C(C)OC(C)=O)csc1C2=O (configuration not stated) | 630 | 1600 | 68 |  | 1100 | 510 | 190 | < 10 | 190 | 630 | 870 | 1600 | 280 | 460 | 2100 | 1700 | 210 | GI50 (BT-549 [3]): 2100 nM
12 | CC(O)c1cc2c(s1)C(=O)c1c(C(C)O)csc1C2=O (configuration not stated) | 62 | 55 | 11 |  | 32 | 58 | 18 | 300 | 28 | 13 | 34 | 110 | 12 | 220 | 320 | 190 | 21 | GI50 (BT-549 [3]): 160 nM
13 | CC(=O)OC(C)c1cc2c(s1)C(=O)c1scc(C(C)OC(C)=O)c1C2=O (configuration not stated) | 170 | 120 | 650 | 200 | 200 | 120 | 21 | 200 | 130 | 34 | 160 | 150 | 270 | 230 | 250 | 210 | 59 | 
14 | CC(O)c1cc2c(s1)C(=O)c1ccsc1C2=O (configuration not stated) | 15 | 10 | 15 | 78 | 16 | 15 | < 10 | 120 | 16 | < 10 | 15 | 91 | 24 | 200 | 110 | 17 | 13 | 
